≈ marks a conversion by molar mass, not a printed value. Calls of active or inactive are those of the source. The rule behind the calls is not given here.
Assays:
[1] = biological target: T1, NAD-dependent protein deacetylase sirtuin-2 (Homo sapiens) (UniProt Q8IXJ6); assay: Inhibition of recombinant human C-terminal His-tagged SIRT2 (13 to 319 residues) using human p53 derived peptides as substrate at 50 uM incubated for 45 mins by fluorescence assay
T1 sequence (whole entry): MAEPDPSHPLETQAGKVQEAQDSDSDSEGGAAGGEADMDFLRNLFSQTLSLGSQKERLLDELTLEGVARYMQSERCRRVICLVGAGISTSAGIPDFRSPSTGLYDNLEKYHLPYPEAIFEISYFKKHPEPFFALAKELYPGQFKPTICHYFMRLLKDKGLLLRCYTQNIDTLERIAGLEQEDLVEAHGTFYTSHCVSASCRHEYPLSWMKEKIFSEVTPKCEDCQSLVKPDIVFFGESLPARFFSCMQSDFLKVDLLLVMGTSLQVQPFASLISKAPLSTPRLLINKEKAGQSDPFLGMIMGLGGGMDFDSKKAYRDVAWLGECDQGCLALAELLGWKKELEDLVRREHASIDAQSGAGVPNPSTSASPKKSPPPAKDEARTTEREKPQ

[2] = biological target: T2, NAD-dependent protein deacetylase sirtuin-2 (Homo sapiens, UniProt Q8IXJ6); assay: Inhibition of recombinant human C-terminal His-tagged SIRT2 (13 to 319 residues) using human p53 derived peptides as substrate incubated for 45 mins by fluorescence assay
T2 sequence (Q8IXJ6 whole entry): T1 sequence (whole entry)

[3] = biological target: T1, NAD-dependent protein deacetylase sirtuin-2 (Homo sapiens); assay: Reversible inhibition of recombinant human C-terminal His-tagged SIRT2 (13 to 319 residues) using human p53 derived peptides as substrate at 10 uM incubated for 45 mins by fluorescence assay
[4] = biological target: T1, NAD-dependent protein deacetylase sirtuin-2 (Homo sapiens); assay: Competitive inhibition of recombinant human C-terminal His-tagged SIRT2 (13 to 319 residues) using human p53 derived peptides as substrate incubated for 45 mins by fluorescence assay in presence of increasing NAD+ level
[5] = Aqueous solubility of compound in water containing 0.5% DMSO by UV-spectrophotometry analysis; type: physicochemical
[6] = biological target: T1, NAD-dependent protein deacetylase sirtuin-2 (Homo sapiens); assay: Inhibition of SIRT2 in human HCT116 cells assessed as increase in alpha-tubulin acetylation up to 50 uM incubated for 24 hrs by Western blotting method; type: cell-based; conditions: HCT-116
CCRF-CEM = assay: Antiproliferative activity against human CCRF-CEM cells assessed as cell viability at 50 uM after 72 hrs by MTS assay (reference value: 100 +/- 5.54%); type: functional; conditions: read-out: Activity
[7] = Antiproliferative activity against human HCT116 cells assessed as cell viability at 50 uM after 72 hrs by MTS assay (reference value: 100 +/- 6.01%); type: functional; conditions: HCT-116, 72 h, read-out: Activity
MDA-MB-468 = assay: Antiproliferative activity against human MDA-MB-468 cells assessed as cell viability at 50 uM after 72 hrs by MTS assay (reference value: 100 +/- 8.06%); type: functional; conditions: MDA-MB-468, 72 h, read-out: Activity
[8] = Drug uptake in cytoplasm of human HCT116 cells at 50 uM by fluorescence microscopy; type: ADME, cell-based; conditions: hct-116, 50 µM
[9] = Drug uptake in cytoplasm of human CCD18 cells at 50 uM by fluorescence microscopy; type: ADME, cell-based; conditions: ccd18, 50 µM
[10] = biological target: T3, NAD-dependent protein deacetylase sirtuin-1 (Homo sapiens) (UniProt Q96EB6); assay: Inhibition of recombinant human N-terminal GST-tagged SIRT1 (193 to 741 residues) using human p53 derived peptides as substrate at 50 uM incubated for 45 mins by fluorescence assay
T3 sequence (whole entry): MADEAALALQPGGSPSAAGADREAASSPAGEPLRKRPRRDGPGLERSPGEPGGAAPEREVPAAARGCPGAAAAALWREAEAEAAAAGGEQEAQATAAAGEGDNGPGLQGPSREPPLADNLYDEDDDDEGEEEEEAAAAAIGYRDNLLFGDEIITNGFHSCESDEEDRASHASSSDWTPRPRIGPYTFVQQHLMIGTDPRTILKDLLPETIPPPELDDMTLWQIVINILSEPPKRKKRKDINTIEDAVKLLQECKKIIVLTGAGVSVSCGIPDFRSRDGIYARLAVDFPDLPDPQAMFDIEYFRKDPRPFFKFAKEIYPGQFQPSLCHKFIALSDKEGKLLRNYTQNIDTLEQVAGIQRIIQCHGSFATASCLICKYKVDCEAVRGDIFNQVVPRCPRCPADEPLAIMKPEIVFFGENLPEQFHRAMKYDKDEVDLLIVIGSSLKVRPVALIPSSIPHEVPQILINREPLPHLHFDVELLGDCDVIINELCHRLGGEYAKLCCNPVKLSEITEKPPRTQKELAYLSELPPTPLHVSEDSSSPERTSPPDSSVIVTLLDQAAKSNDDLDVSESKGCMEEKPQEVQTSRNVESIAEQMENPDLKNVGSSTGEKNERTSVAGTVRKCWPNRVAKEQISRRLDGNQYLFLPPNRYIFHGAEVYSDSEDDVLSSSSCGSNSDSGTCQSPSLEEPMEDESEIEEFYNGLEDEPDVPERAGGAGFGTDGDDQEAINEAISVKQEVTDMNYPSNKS

[11] = biological target: T4, NAD-dependent protein deacetylase sirtuin-1 (Homo sapiens, UniProt Q96EB6); assay: Inhibition of recombinant human N-terminal GST-tagged SIRT1 (193 to 741 residues) using human p53 derived peptides as substrate incubated for 45 mins by fluorescence assay
T4 sequence (Q96EB6 whole entry): T3 sequence (whole entry)

| Structure (SMILES) | inhibition [1] [%] | IC50 [2] [µM] | inhibition [3] | inhibition [4] | solubility [5] [µM] | inhibition [6] | viability at 50 µM (CCRF-CEM) [%] | viability at 50 µM [7] [%] | viability at 50 µM (MDA-MB-468) [%] | Drug uptake [8] | Drug uptake [9] | inhibition [10] [%] | IC50 [11] [µM] |
| --- | --- | --- | --- | --- | --- | --- | --- | --- | --- | --- | --- | --- | --- |
| CCOC(=O)c1ccc2[nH]c(-c3ccc(N4CCCCC4)cc3)nc2c1 | 93.2 | 9 | Active | Active | 59 (≈ 20.6 µg/mL) | Active | 36.3 | 15.9 | 34 | Active | Active | – | – |
| CCOC(=O)c1ccc2[nH]c(-c3ccc(N4CCOCC4)cc3)nc2c1 | 60.7 | 52.9 | – | – | – | – | 37.8 | 54.5 | 42.6 | – | – | 37.8 | 57.5 |
| CCOC(=O)c1ccc2[nH]c(-c3ccc(C(C)(C)C)cc3)nc2c1 | 50.2 | – | – | – | – | – | 82.2 | 54.2 | 54.6 | – | – | – | – |
| CCOC(=O)c1ccc2[nH]c(-c3ccc(C)cc3)nc2c1 | 45.2 | – | – | – | – | – | 61.2 | 48.4 | 89.1 | – | – | – | – |
| CCOC(=O)c1ccc2[nH]c(-c3ccccc3)nc2c1 | 36.3 | – | – | – | – | – | 58.3 | 29.7 | 49.3 | – | – | 24.7 | – |
| N#C/C(=C\c1ccc(-c2cc(Cl)ccc2Cl)o1)C(=O)Nc1cccc2ncccc12 | – | – | – | – | – | – | – | – | – | – | – | – | 68 |
| CCOC(=O)c1ccc2[nH]c(-c3ccc(O)cc3)nc2c1 | 42.9 | – | – | – | – | – | 85.5 | 77.1 | 76.5 | – | – | – | – |
| CCOC(=O)c1ccc2[nH]c(-c3ccc(N(C)C)cc3)nc2c1 | 87.5 | 13.6 | – | – | – | – | 49.5 | 29.7 | 31.1 | – | – | – | – |
| CCOC(=O)c1ccc2[nH]c(-c3ccc(OC)cc3)nc2c1 | 26 | – | – | – | – | – | 87.4 | 75.6 | 82.8 | – | – | – | – |
